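96-well plates; 48 h exposure; 5 concentrations. Endpoints by linear interpolation between flanking doses. Not reached: highest tested concentration assigned. Abbreviation: GI50, concentration required for 50% inhibition of growth. Definition used: TGI = concentration required for complete inhibition of growth.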
Assays:
Test in all cases: NCI tumour cell line growth inhibition, 48 h
OVCAR-5 ovarian = tested on: OVCAR-5 ovarian
PC-3 prostate = tested on: PC-3 prostate
SK-MEL-2 melanoma = tested on: SK-MEL-2 melanoma
M14 melanoma = tested on: M14 melanoma
RXF 393 renal = tested on: RXF 393 renal
MDA-MB-435 = tested on: MDA-MB-435
786-0 renal = tested on: 786-0 renal
SNB-75 CNS = tested on: SNB-75 CNS
KM12 colon = tested on: KM12 colon
CCRF-CEM leukemia = tested on: CCRF-CEM leukemia
UO-31 renal = tested on: UO-31 renal
SW-620 colon = tested on: SW-620 colon
RPMI-8226 leukemia = tested on: RPMI-8226 leukemia
NCI-H522 lung = tested on: NCI-H522 lung
SF-539 CNS = tested on: SF-539 CNS
EKVX NSCLC = tested on: EKVX NSCLC
MOLT-4 leukemia = tested on: MOLT-4 leukemia
NCI-H460 lung = tested on: NCI-H460 lung
DU-145 prostate = tested on: DU-145 prostate
HCT-15 colon = tested on: HCT-15 colon
HCC-2998 colon = tested on: HCC-2998 colon
HOP-92 NSCLC = tested on: HOP-92 NSCLC
OVCAR-8 ovarian = tested on: OVCAR-8 ovarian
BT-549 breast = tested on: BT-549 breast
SK-MEL-5 melanoma = tested on: SK-MEL-5 melanoma
NCI-H226 lung = tested on: NCI-H226 lung
COLO 205 colon = tested on: COLO 205 colon
K-562 leukemia = tested on: K-562 leukemia
SR leukemia = tested on: SR leukemia
HOP-62 NSCLC = tested on: HOP-62 NSCLC
MALME-3M melanoma = tested on: MALME-3M melanoma
SF-268 CNS = tested on: SF-268 CNS
NCI/ADR-RES ovarian = tested on: NCI/ADR-RES ovarian
SF-295 CNS = tested on: SF-295 CNS
U251 CNS = tested on: U251 CNS
UACC-257 melanoma = tested on: UACC-257 melanoma
T-47D breast = tested on: T-47D breast
SNB-19 CNS = tested on: SNB-19 CNS
SK-MEL-28 melanoma = tested on: SK-MEL-28 melanoma
LOX IMVI melanoma = tested on: LOX IMVI melanoma
ACHN renal = tested on: ACHN renal
SN12C renal = tested on: SN12C renal
UACC-62 melanoma = tested on: UACC-62 melanoma
TK-10 renal = tested on: TK-10 renal
HCT-116 colon = tested on: HCT-116 colon
HT29 colon = tested on: HT29 colon
CAKI-1 renal = tested on: CAKI-1 renal
OVCAR-4 ovarian = tested on: OVCAR-4 ovarian
A498 renal = tested on: A498 renal
IGROV1 ovarian = tested on: IGROV1 ovarian
SK-OV-3 ovarian = tested on: SK-OV-3 ovarian
HS 578T breast = tested on: HS 578T breast
MDA-MB-231 breast = tested on: MDA-MB-231 breast
OVCAR-3 ovarian = tested on: OVCAR-3 ovarian
A549 NSCLC = tested on: A549 NSCLC
HL-60(TB) leukemia = tested on: HL-60(TB) leukemia

SMILES: CN(C)CCCNc1c2ccc(Cl)cc2nc2c1oc1ccc(Cl)cc12
- GI50 (OVCAR-5 ovarian): 7.03 µM
- TGI (OVCAR-5 ovarian): 19.7 µM
- GI50 (PC-3 prostate): 1.81 µM
- TGI (PC-3 prostate): 3.86 µM
- GI50 (SK-MEL-2 melanoma): 13.6 µM
- TGI (SK-MEL-2 melanoma): 26.8 µM
- GI50 (M14 melanoma): 1.71 µM
- TGI (M14 melanoma): 3.78 µM
- GI50 (RXF 393 renal): 2.68 µM
- TGI (RXF 393 renal): 8.4 µM
- GI50 (MDA-MB-435): 2.18 µM
- TGI (MDA-MB-435): 5.57 µM
- GI50 (786-0 renal): 1.65 µM
- TGI (786-0 renal): 3.25 µM
- GI50 (SNB-75 CNS): 5.25 µM
- TGI (SNB-75 CNS): 19.2 µM
- GI50 (KM12 colon): 2.65 µM
- TGI (KM12 colon): 8.35 µM
- GI50 (CCRF-CEM leukemia): 3.42 µM
- TGI (CCRF-CEM leukemia): 12.2 µM
- GI50 (UO-31 renal): 4.13 µM
- TGI (UO-31 renal): 18.3 µM
- GI50 (SW-620 colon): 1.64 µM
- TGI (SW-620 colon): 3.63 µM
- GI50 (RPMI-8226 leukemia): 2.58 µM
- TGI (RPMI-8226 leukemia): 7.84 µM
- GI50 (NCI-H522 lung): 4.22 µM
- TGI (NCI-H522 lung): 17 µM
- GI50 (SF-539 CNS): 1.81 µM
- TGI (SF-539 CNS): 3.24 µM
- GI50 (EKVX NSCLC): 4.76 µM
- TGI (EKVX NSCLC): 17.3 µM
- GI50 (MOLT-4 leukemia): 3.14 µM
- TGI (MOLT-4 leukemia): 11.8 µM
- GI50 (NCI-H460 lung): 2.1 µM
- TGI (NCI-H460 lung): 4.8 µM
- GI50 (DU-145 prostate): 3.01 µM
- TGI (DU-145 prostate): 9.1 µM
- GI50 (HCT-15 colon): 2.1 µM
- TGI (HCT-15 colon): 5.71 µM
- GI50 (HCC-2998 colon): 1.84 µM
- TGI (HCC-2998 colon): 3.38 µM
- GI50 (HOP-92 NSCLC): 1.41 µM
- TGI (HOP-92 NSCLC): 7.69 µM
- GI50 (OVCAR-8 ovarian): 2.07 µM
- TGI (OVCAR-8 ovarian): 4.45 µM
- GI50 (BT-549 breast): 11.4 µM
- TGI (BT-549 breast): 25 µM
- GI50 (SK-MEL-5 melanoma): 16.3 µM
- TGI (SK-MEL-5 melanoma): 29.8 µM
- GI50 (NCI-H226 lung): 6.32 µM
- TGI (NCI-H226 lung): 20.9 µM
- GI50 (COLO 205 colon): 4.58 µM
- TGI (COLO 205 colon): 20 µM
- GI50 (K-562 leukemia): 2.73 µM
- GI50 (SR leukemia): 3.04 µM
- TGI (SR leukemia): 10.1 µM
- GI50 (HOP-62 NSCLC): 5.21 µM
- TGI (HOP-62 NSCLC): 19.6 µM
- GI50 (MALME-3M melanoma): 4.76 µM
- TGI (MALME-3M melanoma): 20.5 µM
- GI50 (SF-268 CNS): 3.45 µM
- TGI (SF-268 CNS): 15.3 µM
- GI50 (NCI/ADR-RES ovarian): 2.31 µM
- TGI (NCI/ADR-RES ovarian): 6.59 µM
- GI50 (SF-295 CNS): 4.72 µM
- TGI (SF-295 CNS): 17.1 µM
- GI50 (U251 CNS): 1.76 µM
- TGI (U251 CNS): 3.35 µM
- GI50 (UACC-257 melanoma): 12.3 µM
- TGI (UACC-257 melanoma): 25.5 µM
- GI50 (T-47D breast): 13.1 µM
- TGI (T-47D breast): 29.2 µM
- GI50 (SNB-19 CNS): 5.97 µM
- TGI (SNB-19 CNS): 18.8 µM
- GI50 (SK-MEL-28 melanoma): 14 µM
- TGI (SK-MEL-28 melanoma): 27.2 µM
- GI50 (LOX IMVI melanoma): 1.89 µM
- TGI (LOX IMVI melanoma): 3.4 µM
- GI50 (ACHN renal): 1.7 µM
- TGI (ACHN renal): 3.23 µM
- GI50 (SN12C renal): 1.72 µM
- TGI (SN12C renal): 3.51 µM
- GI50 (UACC-62 melanoma): 16.4 µM
- TGI (UACC-62 melanoma): 31.6 µM
- GI50 (TK-10 renal): 13.1 µM
- TGI (TK-10 renal): 26 µM
- GI50 (HCT-116 colon): 1.43 µM
- TGI (HCT-116 colon): 2.79 µM
- GI50 (HT29 colon): 1.69 µM
- TGI (HT29 colon): 3.5 µM
- GI50 (CAKI-1 renal): 1.49 µM
- TGI (CAKI-1 renal): 2.9 µM
- GI50 (OVCAR-4 ovarian): 1.67 µM
- TGI (OVCAR-4 ovarian): 3.32 µM
- GI50 (A498 renal): 15.3 µM
- TGI (A498 renal): 31.4 µM
- GI50 (IGROV1 ovarian): 3.66 µM
- TGI (IGROV1 ovarian): 15.9 µM
- GI50 (SK-OV-3 ovarian): 10.1 µM
- TGI (SK-OV-3 ovarian): 21.7 µM
- GI50 (HS 578T breast): 8.82 µM
- TGI (HS 578T breast): 28.2 µM
- GI50 (MDA-MB-231 breast): 2.19 µM
- TGI (MDA-MB-231 breast): 5.94 µM
- GI50 (OVCAR-3 ovarian): 2.24 µM
- TGI (OVCAR-3 ovarian): 4.99 µM
- GI50 (A549 NSCLC): 1.67 µM
- TGI (A549 NSCLC): 3.18 µM
- GI50 (HL-60(TB) leukemia): 1.98 µM
- TGI (HL-60(TB) leukemia): 4.81 µM
